We go through three compounds from patent US20070112523A1 (priority 2003, published 2007).

Data set [1] relates to vaccinia virus expressing the green fluorescent protein (vvGFP). The data set can be described thus: microbe, parasite or virus in culture. The format is cell-based. Conditions: for IC50: Orthopoxvirus vaccinia, BSC-40, 24 h.
The nature of a further data set: in vitro. To be noted: African green monkey.
For data set [2] the following is noted: in vivo, po; cited from earlier work.

In general, IC50 refers to the point on the concentration scale where inhibition reaches its midpoint. In the case of `COc1c(CCNC(=O)c2cc3ccccc3cc2O)cccc1-c1ccc([N+](=O)[O-])cc1` [TTP-A, 3-hydroxy-naphthalene-2-carboxylic acid [2-(2-methoxy-4′-nitro-biphenyl-3-yl)-ethyl]-amide], in data set [1], the “anti-viral effect in a cell culture assay (inhibition of viral replication)” value is “have an anti-viral effect” and the 50% inhibitory concentration (IC50) is roughly 12 µM. Also, the CC50 in the data set “in vitro” is roughly 900 µM.
In the case of `COC(=O)C(Cc1ccc(-c2ccc(F)c(Cl)c2)cc1)NC(=O)c1cc(-c2ccc(C(F)(F)F)cc2)ccc1O` (stereo not shown) [TTP-B, 3-(3′-chloro-4′-fluoro-biphenyl-4-yl)-2-[(4-hydroxy-4′-trifluoromethyl-biphenyl-3-carbonyl)-amino]-propionic acid methyl ester], in data set [1], the “anti-viral effect in a cell culture assay (inhibition of viral replication)” value was “have an anti-viral effect” and the IC50 was roughly 4.6 µM. In the data set “in vitro”, this compound displayed a CC50 of roughly 600 µM.
Turning to `Nc1ccn(C[C@@H](CO)OCP(=O)(O)O)c(=O)n1` [cidofovir], the “bio-availability when administered orally” value in data set [2] is listed as “low bio-availability”.
